Measurements reported in patent publication US20150031572A1, “MEANS AND METHODS FOR ASSESSING NEURONAL TOXICITY” (priority 2012, published 2015).
Structures can show the parent of a compound that is named as a salt. Marks after values point to notes of the source that are not given here.

Assay: Plasma metabolite profiling (GC-MS, LC-MS, SPE-LC-MS) of rats dosed once daily over 28 days; treatment ratios versus untreated control
Type: in vivo, rat
Description: A group of each 5 male and female rats was dosed once daily with the indicated compounds (see Table 10, below for compounds, applied doses and administration details) over 28 days.
Each dose group in the studies consisted of five rats per sex. Additional groups of each 5 male and female animals served as controls. Before starting the treatment period, animals, which were 62-64 days old when supplied, were acclimatized to the housing and environmental conditions for 7 days. All animals of the animal population were kept under the same constant temperature (20-24±3° C.) and the same constant humidity (30-70%). The animals of the animal population were fed ad libitum. The food to be used was essentially free of chemical or microbial contaminants. Drinking water was also offered ad libitum. Accordingly, the water was free of chemical and microbial contaminants as laid down in the European Drinking Water Directive 98/83/EG. The illumination period was 12 hours light followed by 12 hours darkness (12 hours light, from 6:00 to 18:00, and 12 hours darkness, from 18:00 to 6:00). […] The test substances (compounds) in the Tables 1 to 9 below were dosed and administered as described in the Table 10 above.
In the morning of day 7, 14, and 28, blood was taken from the retro-orbital venous plexus from fasted anaesthetized animals. From each animal, 1 ml of blood was collected with EDTA as anticoagulant. The samples were centrifuged for generation of plasma. All plasma samples were covered with a N2 atmosphere and then stored at −80° C. until analysis.
For mass spectrometry-based metabolite profiling analyses plasma samples were extracted and a polar and a non-polar (lipid) fraction was obtained. For GC-MS analysis, the non-polar fraction was treated with methanol under acidic conditions to yield the fatty acid methyl esters. Both fractions were further derivatised with O-methyl-hydroxyamine hydrochloride and pyridine to convert Oxogroups to O-methyloximes and subsequently with a silylating agent before analysis. In LC-MS analysis, both fractions were reconstituted in appropriate solvent mixtures. HPLC was performed by gradient elution on reversed phase separation columns. Mass spectrometric detection which allows target and high sensitivity MRM (Multiple Reaction Monitoring) profiling in parallel to a full screen analysis was applied as described in WO2003073464.
Steroids and their metabolites were measured by online SPE-LC-MS (Solid phase extraction-LC-MS).
Following comprehensive analytical validation steps, the data for each analyte were normalized against data from pool samples. These samples were run in parallel through the whole process to account for process variability. The significance of treatment group values specific for sex, treatment duration and metabolite was determined by comparing means of the treated groups to the means of the respective untreated control groups using WELCH-test and quantified with treatment ratios versus control and p-values.
The identification of the most important biomarkers per toxicity pattern was done by a ranking of the analytes in the tables below. Therefore the metabolic changes in reference treatments of a given pattern (shown in the table) were compared with changes of the same metabolite in other unrelated treatments. […] The maximum absolute value of the respective TVALUE was taken to indicate the most important metabolite for the pattern.

[1] = plasma, female rats, day 7, high dose, Table 5a
[2] = plasma, female rats, day 7, high dose, Table 5b
[3] = plasma, female rats, day 7, high dose, Table 6c
[4] = plasma, female rats, day 7, high dose, Table 6d
[5] = plasma, female rats, day 14, high dose, Table 5a
[6] = plasma, female rats, day 14, high dose, Table 5b
[7] = plasma, female rats, day 14, high dose, Table 6c
[8] = plasma, female rats, day 14, high dose, Table 6d
[9] = plasma, female rats, day 28, high dose, Table 5a
[10] = plasma, female rats, day 28, high dose, Table 5b
[11] = plasma, female rats, day 28, high dose, Table 6c
[12] = plasma, female rats, day 28, high dose, Table 6d

OCCOCCN1CCN(C2=Nc3ccccc3Sc3ccccc32)CC1 [Quetiapine fumarate]
3-Hydroxybutyrate, ratio versus control [1]: 1.49*
Histidine, ratio versus control [1]: 1.31*
Isoleucine, ratio versus control [1]: 1.9*
Leucine, ratio versus control [1]: 1.98*
Valine, ratio versus control [1]: 1.49*
4-Hydroxy-3-methoxyphenylglycol (HMPG), ratio versus control [2]: 0.73*
Glucose, ratio versus control [2]: 0.94
Lactate, ratio versus control [2]: 0.45*
Malate, ratio versus control [2]: 0.67*
Metanephrine, ratio versus control [2]: 0.55*
Pyruvate, ratio versus control [2]: 0.37*
Uric acid, ratio versus control [2]: 0.92
4-Hydroxysphinganine (t18:0, Phytosphingosine), total, ratio versus control [3]: 1.03
Docosahexaenoic acid (C22:cis[4,7,10,13,16,19]6), ratio versus control [3]: 1.67*
Docosapentaenoic acid (C22:cis[7,10,13,16,19]5), ratio versus control [3]: 1.98*
Phosphatidylcholine (C16:0,C16:0), ratio versus control [3]: 1.11*
Phosphatidylcholine No 02, ratio versus control [3]: 1.05
TAG (C16:0,C16:1), ratio versus control [3]: 2.83*
TAG (C16:0,C18:2), ratio versus control [3]: 2.65*
TAG (C18:2,C18:2), ratio versus control [3]: 1.99*
TAG (C18:2,C18:3), ratio versus control [3]: 1.83*
TAG (C18:3,C18:2,C18:1), ratio versus control [3]: 2.04*
TAG No 059, ratio versus control [3]: 2.1*
4-Hydroxyphenylpyruvate, ratio versus control [4]: 0.61*
Glycine, ratio versus control [4]: 0.82*
Lactate, ratio versus control [4]: 0.45*
Lysophosphatidylcholine (C16:0), ratio versus control [4]: 0.97*
Uric acid, ratio versus control [4]: 0.92
3-Hydroxybutyrate, ratio versus control [5]: 1.55*
Leucine, ratio versus control [5]: 1.44*
Valine, ratio versus control [5]: 1.24*
4-Hydroxy-3-methoxyphenylglycol (HMPG), ratio versus control [6]: 0.67*
Glucose, ratio versus control [6]: 0.87*
Lactate, ratio versus control [6]: 0.61*
Malate, ratio versus control [6]: 0.66*
Metanephrine, ratio versus control [6]: 0.26*
Pyruvate, ratio versus control [6]: 0.33*
Uric acid, ratio versus control [6]: 0.64*
Docosahexaenoic acid (C22:cis[4,7,10,13,16,19]6), ratio versus control [7]: 1.58*
Docosapentaenoic acid (C22:cis[7,10,13,16,19]5), ratio versus control [7]: 2.01*
Palmitic acid (C16:0), ratio versus control [7]: 1.24*
Phosphatidylcholine (C16:0,C16:0), ratio versus control [7]: 1.2*
TAG (C16:0,C16:1), ratio versus control [7]: 2.16*
TAG (C16:0,C18:1,C18:3), ratio versus control [7]: 1.52*
TAG (C16:0,C18:2), ratio versus control [7]: 1.82*
TAG (C18:2,C18:2), ratio versus control [7]: 1.5*
TAG (C18:3,C18:2,C18:1), ratio versus control [7]: 1.63*
TAG No 059, ratio versus control [7]: 2.21*
4-Hydroxyphenylpyruvate, ratio versus control [8]: 0.62*
Glycine, ratio versus control [8]: 0.71*
Lactate, ratio versus control [8]: 0.61*
Lysophosphatidylcholine (C16:0), ratio versus control [8]: 0.98*
Uric acid, ratio versus control [8]: 0.64*
3-Hydroxybutyrate, ratio versus control [9]: 2.04*
Galactose, lipid fraction, ratio versus control [9]: 1.21
Glutamine, ratio versus control [9]: 1.31*
Isoleucine, ratio versus control [9]: 1.3*
Leucine, ratio versus control [9]: 1.27*
4-Hydroxy-3-methoxyphenylglycol (HMPG), ratio versus control [10]: 0.8
Glucose, ratio versus control [10]: 0.85*
Lactate, ratio versus control [10]: 0.46*
Malate, ratio versus control [10]: 0.55*
Metanephrine, ratio versus control [10]: 0.38*
Pyruvate, ratio versus control [10]: 0.36*
Uric acid, ratio versus control [10]: 0.68*
4-Hydroxysphinganine (t18:0, Phytosphingosine), total, ratio versus control [11]: 1.12
Docosahexaenoic acid (C22:cis[4,7,10,13,16,19]6), ratio versus control [11]: 1.24*
Docosapentaenoic acid (C22:cis[7,10,13,16,19]5), ratio versus control [11]: 1.76*
Galactose, lipid fraction, ratio versus control [11]: 1.21
Phosphatidylcholine (C16:0,C16:0), ratio versus control [11]: 1.07
Phosphatidylcholine (C16:0,C20:5), ratio versus control [11]: 1.1*
Phosphatidylcholine (C16:1,C18:2), ratio versus control [11]: 1.07
Phosphatidylcholine No 02, ratio versus control [11]: 1.31*
TAG (C16:0,C16:1), ratio versus control [11]: 2.14*
TAG (C16:0,C18:1,C18:3), ratio versus control [11]: 2.06*
TAG (C16:0,C18:2), ratio versus control [11]: 1.84*
TAG (C18:2,C18:3), ratio versus control [11]: 1.93*
TAG (C18:3,C18:2,C18:1), ratio versus control [11]: 1.27*
TAG No 059, ratio versus control [11]: 1.48*
4-Hydroxyphenylpyruvate, ratio versus control [12]: 0.36*
Glycine, ratio versus control [12]: 0.86*
Lactate, ratio versus control [12]: 0.46*
Lysophosphatidylcholine (C16:0), ratio versus control [12]: 0.97*
Uric acid, ratio versus control [12]: 0.68*
4-Hydroxysphinganine (t18:0, Phytosphingosine), total, ratio versus control (rat, in vivo): 1.46*
Isoleucine, ratio versus control (rat, in vivo): 1.46*
Phosphatidylcholine No 02, ratio versus control (rat, in vivo): 1.17*
TAG (C16:0,C18:1,C18:3), ratio versus control (rat, in vivo): 1.41*
TAG (C18:2,C18:2), ratio versus control (rat, in vivo): 1.41*
TAG (C18:2,C18:3), ratio versus control (rat, in vivo): 1.37*
Valine, ratio versus control (rat, in vivo): 1.12*
